Test results published in BindingDB's records for patent US20250034165 (Chia Tai Tianqing Pharmaceutical Group, 2025).
pIC50: −log10 of the molar value.

Legend:
[1] = target: Epidermal growth factor receptor (Homo sapiens, UniProt P00533); assay: Inhibitory Activity for EGFR (WT) Kinase
Method: A 50 ng/μL EGFR (WT, Carna) stock solution was diluted with a kinase buffer (50 mM HEPES, 10 mM MgCl2, 2 mM DTT, 1 mM EGTA, 0.01% Tween 20), and 6 μL of 1.67× working solution at 0.005 ng/μL (final concentration: 0.003 ng/μL) was added to each well. Different compounds dissolved in DMSO were added to the wells using a nanoliter pipettor, resulting in the final concentrations of the compounds of 100 nM to 0.0244 nM (4-fold gradient for 7 concentrations in total), and blank control wells (without enzyme) and negative control wells (with enzyme, plus vehicle DMSO) were set, 2 replicate wells for each concentration. After enzyme was reacted with the compound or vehicle for 30 min, 5×ATP at 25 μM (final concentration: 5 μM, Sigma) prepared with a kinase buffer was mixed with 5× substrate at 0.5 μM (final concentration: 0.1 μM, ULight-poly GT, PerkinElmer) at a ratio of 1:1 (v:v), and the mixture was added to each well at 4 μL/well. After being sealed with a film, the plate was incubated at room temperature for 2 h, and then 5 μL of 4×EDTA at 40 mM (final concentration: 10 mM) was added to each well. After the plate was incubated for 5 min at room temperature, 5 μL of 4× detection reagent at 8 nM (final concentration: 2 nM, Eu-anti-phospho-tyrosine antibody, PerkinElmer) was added to each well.

[2] = target: Epidermal growth factor receptor (EGFR)(L858R)(T790M) (Homo sapiens, UniProt P00533, L858R/T790M); assay: Inhibitory Activity for EGFR (L858R/T790M) Kinase
Epidermal growth factor receptor (EGFR)(L858R)(T790M), sequence (P00533 25-1210 T790M/L858R limits assumed): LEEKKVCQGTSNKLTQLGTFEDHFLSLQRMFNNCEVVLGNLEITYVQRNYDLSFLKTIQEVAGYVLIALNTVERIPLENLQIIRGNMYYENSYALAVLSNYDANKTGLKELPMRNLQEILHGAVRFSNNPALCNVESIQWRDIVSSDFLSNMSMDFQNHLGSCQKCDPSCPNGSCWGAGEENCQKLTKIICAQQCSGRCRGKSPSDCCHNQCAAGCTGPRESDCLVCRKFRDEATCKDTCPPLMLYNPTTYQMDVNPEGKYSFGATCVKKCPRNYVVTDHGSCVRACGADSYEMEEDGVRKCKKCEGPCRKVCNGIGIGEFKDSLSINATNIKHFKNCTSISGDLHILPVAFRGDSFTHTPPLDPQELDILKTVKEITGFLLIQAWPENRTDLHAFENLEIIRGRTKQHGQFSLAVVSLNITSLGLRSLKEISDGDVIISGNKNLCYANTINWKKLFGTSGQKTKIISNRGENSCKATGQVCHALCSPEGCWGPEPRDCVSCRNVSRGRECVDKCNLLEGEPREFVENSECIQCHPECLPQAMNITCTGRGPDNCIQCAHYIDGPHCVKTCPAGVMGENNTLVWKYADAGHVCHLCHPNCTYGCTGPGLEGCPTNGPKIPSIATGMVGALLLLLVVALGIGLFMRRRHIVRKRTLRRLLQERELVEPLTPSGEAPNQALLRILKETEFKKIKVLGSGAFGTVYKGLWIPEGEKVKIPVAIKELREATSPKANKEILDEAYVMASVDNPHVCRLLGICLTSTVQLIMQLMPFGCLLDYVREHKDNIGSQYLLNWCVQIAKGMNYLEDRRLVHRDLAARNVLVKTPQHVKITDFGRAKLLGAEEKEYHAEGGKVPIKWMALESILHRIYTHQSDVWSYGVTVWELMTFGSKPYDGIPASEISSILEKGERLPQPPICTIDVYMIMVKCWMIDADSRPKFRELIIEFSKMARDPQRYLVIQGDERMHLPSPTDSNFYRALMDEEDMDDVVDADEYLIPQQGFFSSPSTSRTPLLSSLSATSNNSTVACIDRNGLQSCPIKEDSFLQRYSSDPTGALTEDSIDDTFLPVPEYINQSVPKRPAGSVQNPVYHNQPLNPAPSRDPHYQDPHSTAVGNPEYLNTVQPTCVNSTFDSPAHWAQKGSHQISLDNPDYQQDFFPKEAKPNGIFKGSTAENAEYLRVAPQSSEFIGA
Method: (§1) A 50 ng/μL EGFR (L858R/T790M, Carna) stock solution was diluted with a kinase buffer (50 mM HEPES, 10 mM MgCl2, 2 mM DTT, 1 mM EGTA, 0.01% Tween 20), and 6 μL of 1.67× working solution at 0.004175 ng/μL (final concentration: 0.0025 ng/μL) was added to each well. Different compounds dissolved in DMSO were added to wells using a nanoliter pipettor, resulting in the final concentrations of the compounds of 10 nM to 0.0024 nM (4-fold gradient, 7 concentrations in total), and blank control wells (without enzyme) and negative control wells (with enzyme, plus vehicle DMSO) were set, 2 replicate wells for each concentration. After enzyme was reacted with the compound or vehicle for 30 min, 5×ATP at 25 μM (final concentration: 5 μM, Sigma) prepared with a kinase buffer was mixed with 5× substrate at 0.5 μM (final concentration: 0.1 μM, ULight-poly GT, PerkinElmer) at a ratio of 1:1 (v:v), and the mixture was added to each well at 4 μL/well. After being sealed with a film, the plate was incubated at room temperature for 2 h, and then 5 μL of 4×EDTA at 40 mM (final concentration: 10 mM) was added to each well. After the plate was incubated for 5 min at room temperature, 5 μL of 4× detection reagent at 8 nM (final concentration: 2 nM, Eu-anti-phospho-tyrosine antibody, PerkinElmer) was added to each well. After being incubated at room temperature for 1 h, the plate was read using a PerkinElmer Envision multi-mode microplate reader (excitation: 320 nm, emission: 665 nm), and IC50 was calculated by four-parameter fitting.

[3] = target: Epidermal growth factor receptor [T790M,C797S,L858R] (UniProt P00533, C797S/L858R/T790M); assay: Inhibitory Activity for EGFR (L858R/T790M/C797S) Kinase
Epidermal growth factor receptor [T790M,C797S,L858R], sequence (P00533 25-1210 T790M/C797S/L858R limits assumed): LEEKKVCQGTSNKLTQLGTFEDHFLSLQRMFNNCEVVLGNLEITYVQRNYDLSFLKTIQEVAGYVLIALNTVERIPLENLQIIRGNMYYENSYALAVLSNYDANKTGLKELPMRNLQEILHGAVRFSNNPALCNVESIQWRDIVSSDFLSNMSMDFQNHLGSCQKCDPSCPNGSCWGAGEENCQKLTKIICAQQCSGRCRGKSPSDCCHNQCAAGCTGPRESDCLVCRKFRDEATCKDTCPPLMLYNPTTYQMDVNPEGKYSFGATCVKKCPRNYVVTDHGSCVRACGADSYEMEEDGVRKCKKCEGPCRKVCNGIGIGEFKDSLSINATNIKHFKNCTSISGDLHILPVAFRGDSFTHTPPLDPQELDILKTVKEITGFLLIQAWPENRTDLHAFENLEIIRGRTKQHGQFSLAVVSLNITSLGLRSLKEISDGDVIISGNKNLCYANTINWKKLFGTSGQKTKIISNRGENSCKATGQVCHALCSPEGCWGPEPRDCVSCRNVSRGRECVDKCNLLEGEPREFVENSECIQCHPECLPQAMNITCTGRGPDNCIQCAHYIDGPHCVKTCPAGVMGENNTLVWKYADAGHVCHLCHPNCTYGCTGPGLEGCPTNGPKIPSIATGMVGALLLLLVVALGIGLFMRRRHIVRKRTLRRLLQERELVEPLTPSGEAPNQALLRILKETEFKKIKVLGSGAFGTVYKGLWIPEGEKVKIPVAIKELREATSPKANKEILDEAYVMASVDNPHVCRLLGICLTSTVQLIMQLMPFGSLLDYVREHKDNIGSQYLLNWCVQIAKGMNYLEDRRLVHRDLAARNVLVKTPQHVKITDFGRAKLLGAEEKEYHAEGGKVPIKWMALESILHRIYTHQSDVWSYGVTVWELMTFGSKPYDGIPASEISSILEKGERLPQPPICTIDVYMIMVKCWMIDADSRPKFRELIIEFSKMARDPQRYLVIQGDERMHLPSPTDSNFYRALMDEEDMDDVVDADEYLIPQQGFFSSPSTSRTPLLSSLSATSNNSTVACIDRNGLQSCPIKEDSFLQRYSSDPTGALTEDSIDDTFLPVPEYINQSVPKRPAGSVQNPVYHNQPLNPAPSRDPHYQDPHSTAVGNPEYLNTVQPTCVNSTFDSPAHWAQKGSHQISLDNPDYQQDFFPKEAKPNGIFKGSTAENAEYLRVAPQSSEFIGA
Method: as §1, with “(L858R/T790M/C797S, BPS)” for “(L858R/T790M, Carna)”, “0.00167” for “0.004175”, “0.001” for “0.0025”

Epidermal growth factor receptor, sequence (P00533 whole entry): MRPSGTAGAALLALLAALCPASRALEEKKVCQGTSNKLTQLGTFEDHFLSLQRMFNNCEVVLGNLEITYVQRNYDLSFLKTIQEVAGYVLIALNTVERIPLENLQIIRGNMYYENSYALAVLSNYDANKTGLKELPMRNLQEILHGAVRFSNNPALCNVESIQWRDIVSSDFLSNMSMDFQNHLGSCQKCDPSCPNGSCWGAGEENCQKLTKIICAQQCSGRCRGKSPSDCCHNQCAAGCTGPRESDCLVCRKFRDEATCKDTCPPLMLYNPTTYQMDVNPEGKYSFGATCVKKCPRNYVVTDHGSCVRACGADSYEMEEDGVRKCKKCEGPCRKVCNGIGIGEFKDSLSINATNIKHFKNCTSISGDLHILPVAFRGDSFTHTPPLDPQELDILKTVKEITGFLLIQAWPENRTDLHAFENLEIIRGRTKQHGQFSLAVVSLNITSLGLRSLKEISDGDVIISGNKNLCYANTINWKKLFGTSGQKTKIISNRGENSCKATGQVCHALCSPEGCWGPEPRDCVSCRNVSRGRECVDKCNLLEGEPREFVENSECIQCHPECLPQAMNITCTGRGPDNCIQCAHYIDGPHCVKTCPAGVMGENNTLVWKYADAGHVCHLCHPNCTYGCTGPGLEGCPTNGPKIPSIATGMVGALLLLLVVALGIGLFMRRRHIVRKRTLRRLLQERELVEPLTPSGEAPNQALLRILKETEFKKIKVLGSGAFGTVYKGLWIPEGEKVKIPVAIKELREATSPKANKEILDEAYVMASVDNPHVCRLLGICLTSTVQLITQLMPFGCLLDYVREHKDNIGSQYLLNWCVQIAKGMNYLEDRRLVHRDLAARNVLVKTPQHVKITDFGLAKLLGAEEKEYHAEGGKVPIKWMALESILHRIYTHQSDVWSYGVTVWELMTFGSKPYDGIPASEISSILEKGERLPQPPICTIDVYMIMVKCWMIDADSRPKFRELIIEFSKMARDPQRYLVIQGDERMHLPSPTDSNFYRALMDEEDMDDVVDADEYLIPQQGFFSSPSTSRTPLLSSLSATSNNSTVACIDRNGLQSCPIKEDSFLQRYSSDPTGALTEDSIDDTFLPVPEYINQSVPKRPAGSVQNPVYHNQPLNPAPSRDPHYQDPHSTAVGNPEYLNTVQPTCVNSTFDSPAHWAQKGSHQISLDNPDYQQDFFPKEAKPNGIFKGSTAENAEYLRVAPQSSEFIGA

Structure (SMILES)	pIC50 [1]	pIC50 [2]	pIC50 [3]
Cc1cc2cc(n1)-c1cnn(C)c1OCCC[C@@H](C1CC1)CN1/C(=N/C2=O)Nc2cc(NCCCCN(C)C)ccc21 [US20250034165, Example 51]	8.74	10.77	–
Cc1cc2cc(n1)-c1cnn(C)c1OCCC[C@@H](C1CC1)CN1/C(=N/C2=O)Nc2ccc(NCCN)cc21 [US20250034165, Example 58]	9.29	10.92	–
Cc1cc2cc(n1)-c1cnn(C)c1OCCC[C@@H](C1CC1)CN1/C(=N/C2=O)Nc2ccc(NCCCN3CCCC3)cc21 [US20250034165, Example 84]	8.92	10.00	–
Cc1cc2cc(n1)-c1cnn(C)c1OCCC[C@@H](C1CC1)CN1/C(=N/C2=O)Nc2cc(NC3CCN(C(C)C)CC3)ccc21 [US20250034165, Example 47]	9.26	10.64	–
Cc1cc2cc(n1)-c1cnn(C)c1OCCC[C@@H](C1CC1)CN1/C(=N/C2=O)Nc2cc(NC(C)C3(C)COC3)ccc21 (some centres undefined) [US20250034165, Example 89]	–	9.10	9.22
Cc1cc2cc(n1)-c1cnn(C)c1OCCC[C@@H](C1CC1)CN1/C(=N/C2=O)Nc2cc(N[C@@H](C)CN3CCCCC3)ccc21 [US20250034165, Example 138]	–	9.89	9.46
Cc1cc2cc(n1)-c1cnn(C)c1OCCC[C@@H](C1CC1)CN1/C(=N/C2=O)Nc2cc(N[C@H](C)CN3CCCCC3)ccc21 [US20250034165, Example 137]	–	9.89	9.28
Cc1cc2cc(n1)-c1cnn(C)c1OCCC[C@@H](C1CC1)CN1/C(=N/C2=O)Nc2ccc(N[C@@H]3CC[C@@H](N(C)C)C3)cc21 [US20250034165, Example 130]	–	9.52	9.44
Cc1cc2cc(n1)-c1cnn(C)c1OCCC[C@@H](C1CC1)CN1/C(=N/C2=O)Nc2ccc(NCCN(C)C)cc21 [US20250034165, Example 28]	9.35	–	–
Cc1cc2cc(n1)-c1cnn(C3CC3)c1OCCC[C@@H](C)CN1/C(=N/C2=O)Nc2cc(NC[C@H]3COCCO3)ccc21 [US20250034165, Example 14]	8.40	9.96	–
Cc1cc2cc(n1)-c1cnn(C)c1OCCC[C@@H](C1CC1)CN1/C(=N/C2=O)Nc2ccc(NC3CCN(C)CC3)cc21 [US20250034165, Example 20]	9.70	10.80	–
Cc1cc2cc(n1)-c1cnn(C)c1OCCC[C@@H](C1CC1)CN1/C(=N/C2=O)Nc2ccc(N[C@H](C)CCN3CCCCC3)cc21 [US20250034165, Example 143]	–	9.96	9.40
Cc1cc2cc(n1)-c1cnn(C)c1OCCC[C@@H](C1CC1)CN1/C(=N/C2=O)Nc2cc(N[C@@H]3CC[C@@H](N(C)C)C3)ccc21 [US20250034165, Example 129]	–	9.52	9.41
Cc1cc2cc(n1)-c1cnn(C)c1OCCC[C@@H](C1CC1)CN1/C(=N/C2=O)Nc2ccc(N[C@H]3C[C@H](N(C)C)C3)cc21 [US20250034165, Example 128]	–	9.20	9.34
Cc1cc2cc(n1)-c1cnn(C3CC3)c1OCCC[C@@H](C)CN1/C(=N/C2=O)Nc2cc(NCCN3CCOCC3)ccc21 [US20250034165, Example 5]	8.51	10.04	–
Cc1cc2cc(n1)-c1cnn(C)c1OCCC[C@@H](C1CC1)CN1/C(=N/C2=O)Nc2ccc(NC(C)CN(C)C)cc21 (some centres undefined) [US20250034165, Example 63]	9.48	11.05	–
Cc1cc2cc(n1)-c1cnn(C)c1OCCC[C@@H](C1CC1)CN1/C(=N/C2=O)Nc2cc(N[C@H](C)CN(C)C)ccc21 [US20250034165, Example 67]	–	9.85	9.31
Cc1cc2cc(n1)-c1cnn(C)c1OCCC[C@@H](C1CC1)CN1/C(=N/C2=O)Nc2cc(N[C@@H](C)CCN3CCCCC3)ccc21 [US20250034165, Example 140]	–	9.96	9.52
Cc1cc2cc(n1)-c1cnn(C)c1OCCC[C@@H](C1CC1)CN1/C(=N/C2=O)Nc2cc(N[C@H]3CC[C@H](N(C)C)C3)ccc21 [US20250034165, Example 135]	–	9.49	9.37
Cc1cc2cc(n1)-c1cnn(C)c1OCCC[C@@H](C1CC1)CN1/C(=N/C2=O)Nc2ccc(N[C@@H]3CC[C@H](N(C)C)C3)cc21 [US20250034165, Example 134]	–	9.26	9.32

The next lines start with the values.

pIC50 [1]	pIC50 [2]	pIC50 [3]	Structure (SMILES)
8.70	10.40	10.28	Cc1cc2cc(n1)-c1cnn(C)c1OCCC[C@@H](C1CC1)CN1/C(=N/C2=O)Nc2cc(NCC3CCOCC3)ccc21 [US20250034165, Example 22]
8.89	–	10.18	Cc1cc2cc(n1)-c1cnn(C)c1OCCC[C@@H](C1CC1)CN1/C(=N/C2=O)Nc2cc(NCCCN)ccc21 [US20250034165, Example 50]
9.33	–	10.92	Cc1cc2cc(n1)-c1cnn(C)c1OCCC[C@@H](C1CC1)CN1/C(=N/C2=O)Nc2cc(NC3CN(C)C3)ccc21 [US20250034165, Example 33]
9.24	–	10.85	Cc1cc2cc(n1)-c1cnn(C)c1OCCC[C@@H](C1CC1)CN1/C(=N/C2=O)Nc2ccc(NCCN3CCCC3)cc21 [US20250034165, Example 82]
8.92	–	10.41	Cc1cc2cc(n1)-c1cnn(C)c1OCCC[C@@H](C1CC1)CN1/C(=N/C2=O)Nc2cc(N[C@@H]3CCOC3)ccc21 [US20250034165, Example 43]
8.47	–	9.92	Cc1cc2cc(n1)-c1cnn(C3CC3)c1OCCC[C@@H](C)CN1/C(=N/C2=O)Nc2ccc(N3CC[C@H](O)C3)cc21 [US20250034165, Example 16]
–	10.10	9.77	Cc1cc2cc(n1)-c1cnn(C)c1OCCC[C@@H](C1CC1)CN1/C(=N/C2=O)Nc2ccc(N[C@@H](C)CCN3CCCCC3)cc21 [US20250034165, Example 144]
8.74	–	10.46	Cc1cc2cc(n1)-c1cnn(C)c1OCCC[C@@H](C1CC1)CN1/C(=N/C2=O)Nc2cc(NC[C@H]3COCCO3)ccc21 [US20250034165, Example 19]
9.40	–	10.55	Cc1cc2cc(n1)-c1cnn(C)c1OCCC[C@@H](C1CC1)CN1/C(=N/C2=O)Nc2cc(NC3(C)CNC3)ccc21 [US20250034165, Example 34]
9.06	–	10.66	Cc1cc2cc(n1)-c1cnn(C)c1OCCC[C@@H](C1CC1)CN1/C(=N/C2=O)Nc2cc(NCCN3CCOCC3)ccc21 [US20250034165, Example 3]
8.77	–	10.29	Cc1cc2cc(n1)-c1cnn(C)c1OCCC[C@@H](C1CC1)CN1/C(=N/C2=O)Nc2cc(N[C@@H]3CCCOC3)ccc21 [US20250034165, Example 18]
8.62	–	10.12	Cc1cc2cc(n1)-c1cnn(C)c1OCCC[C@@H](C1CC1)CN1/C(=N/C2=O)Nc2ccc(N3CC[C@H](O)C3)cc21 [US20250034165, Example 21]
